In US6821774B1, “Compositions and methods for increasing cholesterol efflux and raising HDL using ATP binding cassette transporter ABC1” (CV Therapeutics, Inc., priority 1999, dated 2004):

Columns and labels:
Assay type in all cases: cell-based, mouse
RAW 264.7 cells = test: Apo A-I-mediated cholesterol efflux assay in cholesterol-loaded RAW 264.7 macrophage cells
Protocol: To determine whether ligands for nuclear receptors affect the process of apolipoprotein-mediated cholesterol efflux, various ligands were tested using the apo A-I-mediated cholesterol efflux assay described in Example 12. The nuclear receptor superfamily includes several members, such as the liver receptor LXR, the retinoid receptor RXR, and the peroxisome proliferator-activated receptor PPAR, which have been implicated in lipid metabolism (Russell. D. W., Cell, 97:539-542 (1999); Spiegelman, B. W., Cell, 93:153-155 (1998); Janowski et al., Nature, 383:728-731 (1996)). […] Using the above-described assay, 9 cis-retinoic acid (RXR ligand), oxysterol (LXR ligand), and fenfibrate (PPAR ligand) was tested to determine the effect on cholesterol efflux.
To determine whether eicosanoids affect the process of apolipoprotein-mediated cholesterol efflux, PGE1 and PG12 were tested using the apo A-I-mediated cholesterol efflux assay described in Example 12.

ABC1 promoter = test: pAPR1 luciferase reporter assay (ABC1 promoter) in RAW 264.7 cells; details: 24 hours
Text: Construction of Reporter Plasmids: Plasmid pGL3-Basic (Promega, Madison, Wis.; Cat. #E1751) was used as a control plasmid containing the promoter less luciferase gene. The reporter construct containing the ABC1 promoter and luciferase gene was made by cloning a genomic fragment from the 5′ flanking region of the ABC1 gene (hAPR1 5′ promoter, corresponding to nucleotides 1080-1643 of SEQ ID NO: 3) into the SacI site of the GL3-Basic plasmid to generate plasmid GL-6a. Next, plasmid GL-6a was digested with SpeI and Acc65I. […]
Luciferase Assay: Following transfection, the cells in each well were lysed in 70 μl of 1× cell lysis reagent (Promega, Madison, Wis., Cat. #E3971), subjected to one freeze-thaw cycle, and the lysate cleared by centrifugation for 5 minutes at 12,000 g. […] The luciferase activity of each lysate was measured as light units using a luminometer. Additionally, the β-galactosidase activity of each lysate was measured using the chemiluminescent assay reagents supplied in the Galacto-light kit according to the manufacturer's instructions (Tropix Inc., Bedford, Mass.: Cat. #BL100G). The normalized luciferase activity for each lysate was determined by dividing the luciferase activity value by the determined β-galactosidase value and reported as relative light units. […]

[1] = tested on: 5′ flanking region of ABC1; test: Luciferase reporter assay with ABC1 5′ flanking region constructs in RAW 264.7 cells; details: wild-type sequence nucleotides 1080-1643; single ligand or both together
Protocol: (§1) Luciferase Assay: Following transfection, the cells in each well were lysed in 70 μl of 1× cell lysis reagent (Promega, Madison, Wis., Cat. #E3971), subjected to one freeze-thaw cycle, and the lysate cleared by centrifugation for 5 minutes at 12,000 g. After centrifugation, 100 μl of luciferase assay reagent (Promega, Madison, Wis.; Cat. #E1501) was added to 10 μl of lysate. The luciferase activity of each lysate was measured as light units using a luminometer. Additionally, the β-galactosidase activity of each lysate was measured using the chemiluminescent assay reagents supplied in the Galacto-light kit according to the manufacturer's instructions (Tropix Inc., Bedford, Mass.: Cat. #BL100G). The normalized luciferase activity for each lysate was determined by dividing the luciferase activity value by the determined β-galactosidase value and reported as relative light units.
Construction of Reporter Constructs: Reporter construct pAPR1 and control reporter construct pGL3-Basic were obtained as described in Example 15. […]
Transfection of Reporter Constructs: The RAW 264.7 cells were maintained in culture and transfected with either pGL3-Basic (1 μg), pAPR1 (1 μg), or one of the other reporter constructs according to the method described in Example 15. […] The luciferase activity was measured and reported as relative light units as described in Example 15.

ABC1 mRNA = ABC1 mRNA expression by RT-PCR in RAW 264.7 cells; details: 10 μM, 24 hours, serum-free DMEM/BSA
Protocol: RT-PCR: Quantitative PCR was carried out using the GeneAmp 5700 Sequence Detection System (Perkin-Elmer Applied Biosystems, Foster City, Calif.). Briefly, 500 ng of DNase-treated mRNA was reverse transcribed using random hexamer primers at 2.5 μM. Approximately 5% of this reaction was amplified by PCR using the SYBR green core kit (PE Applied Biosystems, Foster City, Calif.; Cat. #4304886) and human ABC1 primers LF: 5′-[…] (SEQ ID NO: 11) and LR: 5′-[…] (SEQ ID NO: 12) to yield an 82 bp fragment corresponding to nucleotides 7018-7099 of human ABC1. PCR cycle conditions were as follows: 10 minutes 95° C.; followed by 40 cycles of 95° C., 15 seconds; and 60° C., 60 secounds. The mRNA in each sample was quantitated by detecting the increase in fluorescence caused by SYBR green binding to the double-stranded amplification product generated during each PCR cycle. All samples were run in triplicate and normalized against β-actin mRNA, amplified in parallel reactions with primers actinF: 5′-[…] (SEQ ID NO: 54) and actinB: 5′-[…] […]
Mouse RAW 264.7 cells were grown to subconfluence in DMEM/10% FBS and then treated for 24 hours in serum-free DMEM/BSA with either 9-cis retinoic acid (10 μM), 20-hydroxycholesterol (10 μM), or both ligands together (20 μM total). […] RNA was extracted, treated with DNase, and ABC1 mRNA measured by RT-PCR using PE Biosystems SYBR Green Technology as described in Example 9.

[2] = tested on: mutated sterol response element of ABC1 5′ flanking region; test: Luciferase reporter assay with mutated sterol response element construct (nucleotides 1080-1643) in RAW 264.7 cells; details: mutated sequence; oxysterol 10 μM
Protocol: as §1
Transfection of Reporter Constructs: The RAW 264.7 cells were maintained in culture and transfected with either pGL3-Basic (1 μg), pAPR1 (1 μg), or one of the other reporter constructs according to the method described in Example 15. […] The luciferase activity was measured and reported as relative light units as described in Example 15. […]

CCCCC[C@H](O)/C=C/[C@H]1[C@H](O)CC(=O)[C@@H]1CCCCCCC(=O)O [PGE1, prostaglandin E1]
increase in apoAI-induced cholesterol efflux (RAW 264.7 cells; 25 nM, cholesterol-loaded mouse macrophage cells): ~3 fold
cholesterol efflux (RAW 264.7 cells; apo A-I and PGE1 25 nM): 15%

CC1=C(/C=C/C(C)=C\C=C\C(C)=C\C(=O)O)C(C)(C)CCC1 [9-cis retinoic acid]
increase in luciferase activity compared with EtOH control (ABC1 promoter; 9-cis RA 10 μM): 16 fold
transcriptional response (luciferase activity) [1]: produced a transcritional response
increase in apoAI-induced cholesterol efflux (RAW 264.7 cells; 30 ng/ml, cholesterol-loaded mouse macrophage cells): ~3 fold
dose dependence of cholesterol efflux from macrophage cells (RAW 264.7 cells; 0.3, 3.0 or 30 ng/ml): dose-dependent manner
cholesterol efflux (RAW 264.7 cells; apo A-I and 9 cis-retinoic acid 30 ng/ml): 16%
cholesterol efflux counts (RAW 264.7 cells; apo A-I plus 0.3 ng/ml 9-cis-RA): 1522 c.p.m.
cholesterol efflux counts (RAW 264.7 cells; apo A-I plus 3.0 ng/ml 9-cis-RA): 3568 c.p.m.
cholesterol efflux counts (RAW 264.7 cells; apo A-I plus 30 ng/ml 9-cis-RA): 8597 c.p.m.
change in ABC1 mRNA expression (ABC1 mRNA): increase in ABC1 mRNA expression

CCCCC[C@H](O)/C=C/[C@@H]1[C@H]2C/C(=C/CCCC(=O)O)O[C@H]2C[C@H]1O [PG12, prostacyclin]
increase in apoAI-induced cholesterol efflux (RAW 264.7 cells; 25 nm, cholesterol-loaded mouse macrophage cells): ~2 fold
cholesterol efflux (RAW 264.7 cells; apo A-I and PG12 25 nm): 10%

CC(C)CCC[C@](C)(O)[C@H]1CC[C@H]2[C@@H]3CC=C4C[C@@H](O)CC[C@]4(C)[C@H]3CC[C@@]21C [20(S)-hydroxycholesterol]
increase in luciferase reporter activity compared with EtOH control (ABC1 promoter; 20(S) OH-chol 10 μM): 19 fold
transcriptional response (luciferase activity) [1]: produced a transcritional response
change in ABC1 mRNA expression (ABC1 mRNA): increase in ABC1 mRNA expression
transcriptional response (luciferase activity) [2]: did not produce a transcriptional response

CC(C)OC(=O)C(C)(C)Oc1ccc(C(=O)c2ccc(Cl)cc2)cc1 [fenfibrate]
increase in cholesterol efflux (RAW 264.7 cells; 3 μg/ml, cholesterol-loaded mouse macrophage cells): ~2 fold
cholesterol efflux (RAW 264.7 cells; apo A-I and fenfibrate 3 μg/ml): 10%

CC(C)CC[C@@H](O)[C@@H](C)[C@H]1CC[C@H]2[C@@H]3CC=C4C[C@@H](O)CC[C@]4(C)[C@H]3CC[C@]12C [22(R)-hydroxycholesterol]
increase in apoAI-induced cholesterol efflux (RAW 264.7 cells; 5 μg/ml, cholesterol-loaded mouse macrophage cells): ~3 fold
effect on cholesterol efflux (data not shown) (RAW 264.7 cells; similar assay, RAW 264.7 cells cholesterol-loaded for 48 hours): increase cholesterol efflux
transcriptional response (luciferase activity) [2]: did not produce a transcriptional response
